# Laboratory results from patent US7632829B2, “Diazepan derivatives” (Hoffmann-La Roche Inc., priority 2006, dated 2009).
# Biological target: T1, human chemokine receptor 2 isoform B (Homo sapiens, UniProt P41597)
# T1 construct: host or cells: CHOK1-CCR2B-A5 (CHO-K1)
# T1 sequence (P41597 1-360 isoform P41597-2): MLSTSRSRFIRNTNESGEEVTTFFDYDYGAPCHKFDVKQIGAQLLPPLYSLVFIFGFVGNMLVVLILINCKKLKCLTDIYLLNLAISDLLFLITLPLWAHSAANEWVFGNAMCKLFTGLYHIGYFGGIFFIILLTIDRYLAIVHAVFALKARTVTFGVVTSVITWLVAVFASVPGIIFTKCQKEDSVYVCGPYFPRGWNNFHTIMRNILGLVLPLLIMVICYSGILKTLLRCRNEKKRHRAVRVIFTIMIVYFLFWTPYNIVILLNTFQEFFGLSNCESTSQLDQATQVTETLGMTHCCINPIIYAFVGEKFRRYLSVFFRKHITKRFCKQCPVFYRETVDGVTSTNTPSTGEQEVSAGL
# Experiment: Calcium mobilization assay (FLIPR, CHOK1-CCR2B-A5 cells, 20 nM MCP-1)
# Format: cell-based
# Conditions: Ca mobilisation assay, CCR2, antagonist activity vs 20 nM MCP-1
# In short: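 Antagonism read as IC50 against 20 nM MCP-1-evoked calcium rise (peak minus baseline Fluo-4 signal, FLIPR) in CCR2B-overexpressing CHO-K1 cells. Compounds were preincubated 20-30 min at 30 °C, with agonist activity recorded for 80 s on addition.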
row,IC50,Molecule
1,345 nM,"O=C(/C=C/c1ccc(Cl)c(Cl)c1)N1CCC(=O)N(CCCCN2CC[C@@H](O)[C@H](O)C2)CC1 (racemic) [Example 165, 1-[(E)-3-(3,4-Dichloro-phenyl)-acryloyl]-4-[4-((3RS,4RS)-3,4-dihydroxy-piperidin-1-yl)-butyl]-[1,4]diazepan-5-one]"
2,553 nM,"COC[C@H]1CCN(C[C@H](O)CN2CCN(C(=O)/C=C/c3ccc(F)c(Cl)c3)CCC2=O)C[C@H]1O (mixture of isomers) [Example 338, 1-[(E)-3-(3-Chloro-4-fluoro-phenyl)-acryloyl]-4-[(S)-2-hydroxy-3-(cis-3-hydroxy-4-methoxymethyl-piperidin-1-yl)-propyl]-[1,4]diazepan-5-one]"
3,16 nM,O=C(/C=C/c1ccc(Cl)c(Cl)c1)N1CCC(=O)N(CCCCN2CCC3(CC3)C(O)C2)CC1 (racemic) [Example 456]
4,92 nM,COC(=O)NC1CCN(CCCCN2CCN(C(=O)/C=C/c3ccc(F)c(Cl)c3)CCC2=O)CC1 [Example 401]
5,538 nM,"CN(CCCN1CCN(C(=O)/C=C/c2ccc(Cl)c(Cl)c2)CCC1=O)C1CCCCC1 [Example 39, 4-[3-(Cyclohexyl-methyl-amino)-propyl]-1-[(E)-3-(3,4-dichloro-phenyl)-acryloyl]-[1,4] diazepan-5-one]"
6,359 nM,"O=C(/C=C/c1ccc(Cl)c(Cl)c1)N1CCC(=O)N(CCCN2CC[C@@H](O)[C@@H](F)C2)CC1 (racemic) [Example 233, (rac, cis)-1-[(E)-3-(3,4-Dichloro-phenyl)-acryloyl]-4-[3-(3-fluoro-4-hydroxy-piperidin-1-yl)-propyl]-[1,4]diazepan-5-one]"
7,1290 nM,"O=C(/C=C/c1ccc(F)c(F)c1)N1CCC(=O)N(CCCN2CCCCC2)CC1 [Example 7, 1-[(E)-3-(3,4-Difluoro-phenyl)-acryloyl]-4-(3-piperidin-1-yl-propyl)-[1,4]diazepan-5-one]"
8,848 nM,O=C(/C=C/c1ccc(Cl)c(Cl)c1)N1CCC(=O)N(CC(O)CN2CC[C@H](O)[C@H](F)C2)CC1 (relative stereo) [Example 287]
9,380 nM,O=C(/C=C/c1ccc(F)c(Cl)c1)N1CCC(=O)N(CCCCN2CCC(CO)CC2)CC1 [Example 386]
10,3 nM,"O=C(/C=C/c1ccc(F)c(Cl)c1)N1CCC(=O)N(C[C@@H](O)CN2CCC3(CC3)C(O)C2)CC1 (stereo partly drawn) [Example 342, 1-[(E)-3-(3-Chloro-4-fluoro-phenyl)-acryloyl]-4-[(S)-2-hydroxy-3-((+)-4-hydroxy-6-aza-spiro[2.5]oct-6-yl)-propyl]-[1,4]diazepan-5-one]"
11,65 nM,O=C(/C=C/c1ccc(Cl)c(F)c1)N1CCC(=O)N(CCCCN2CC(O)CCC2CO)CC1 (racemic) [Example 414]
12,388 nM,"O=C(/C=C/c1ccc(Cl)c(Cl)c1)N1CCC(=O)N(CCNC2CCOCC2)CC1 [Example 103, 1-[(E)-3-(3,4-Dichloro-phenyl)-acryloyl]-4-[3-(tetrahydro-pyran-4-ylamino)-ethyl]-[1,4]diazepan-5-one]"
13,121 nM,"O=C(/C=C/c1ccc(Cl)c(Cl)c1)N1CCC(=O)N(CCCNC2CC3CCC2C3)CC1 (racemic) [Example 38, (+/−)-4-[3-(Bicyclo[2.2.1]hept-2-ylamino)-propyl]-1-[(E)-3-(3,4-dichloro-phenyl)-acryloyl]-[1,4] diazepan-5-one]"
14,259 nM,"O=C(/C=C/c1ccc(Cl)c(Cl)c1)N1CCC(=O)N(CCCCN2CCCCC2CO)CC1 (racemic) [Example 427, (rac)-1-[(E)-3-(3,4-Dichloro-phenyl)-acryloy]-4-[4-(2-hydroxymethyl-piperidin-1-yl)-butyl]-[1,4]diazepan-5-one]"
15,325 nM,CC1(O)CCCN(CCCN2CCN(C(=O)/C=C/c3ccc(F)c(Cl)c3)CCC2=O)C1 (racemic) [Example 205]
16,1070 nM,COC(=O)NC1CCCN(CCCN2CCN(C(=O)/C=C/c3ccc(Cl)c(Cl)c3)CCC2=O)C1 (racemic) [Example 256]
17,28 nM,"O=C(/C=C/c1ccc(Cl)c(Cl)c1)N1CCC(=O)N(C[C@@H](O)CN2CC[C@H](CO)[C@H](O)C2)CC1 (mixture of isomers) [Example 328, 1-[(E)-3-(3,4-Dichloro-phenyl)-acryloyl]-4-[(S)-2-hydroxy-3-(cis-3-hydroxy-4-hydroxymethyl-piperidin-1-yl)-propyl]-[1,4]diazepan-5-one]"
18,416 nM,CC1CCCN(CC(O)CCN2CCN(C(=O)/C=C/c3ccc(Cl)c(Cl)c3)CCC2=O)C1 (racemic) [Example 376]
19,255 nM,"O=C(/C=C/c1ccc(Cl)c(Cl)c1)N1CCC(=O)N(CC(O)CN2CCC(F)CC2)CC1 (racemic) [Example 169, (rac)-1-[(E)-3-(3,4-Dichloro-phenyl)-acryloyl]-4-[3-(4-fluoro-piperidin-1-yl)-2-hydroxy-propyl]-[1,4]diazepan-5-one]"

row,IC50,Molecule
1,47 nM,"O=C(/C=C/c1ccc(Cl)c(Cl)c1)N1CCC(=O)N(CCCCN2CCCC(O)C2)CC1 (racemic) [Example 161, 1-[(E)-3-(3,4-Dichloro-phenyl)-acryloyl]-4-[4-(3-hydroxy-piperidin-1-yl)-butyl]-[1,4]diazepan-5-one]"
2,1250 nM,COCC1(C)CCCN(CCCN2CCN(C(=O)/C=C/c3ccc(Cl)c(Cl)c3)CCC2=O)C1 (racemic) [Example 249]
3,41 nM,CC1(CO)CCCN1CCCCN1CCN(C(=O)/C=C/c2ccc(Cl)c(Cl)c2)CCC1=O (racemic) [Example 462]
4,95 nM,COCC1CCN(CCCCN2CCN(C(=O)/C=C/c3ccc(F)c(Cl)c3)CCC2=O)CC1 [Example 404]
5,181 nM,CC1CCN(CCCCN2CCN(C(=O)/C=C/c3ccc(Cl)c(Cl)c3)CCC2=O)CC1O (racemic) [Example 448]
6,441 nM,"O=C(/C=C/c1ccc(Cl)c(Cl)c1)N1CCC(=O)N(CCCN2CCC(O)(c3ccncc3)CC2)CC1 [Example 53, 1-[(E)-3-(3,4-Dichloro-phenyl)-acryloyl]-4-[3-(4-hydroxy-3,4,5,6-tetrahydro-2H-[4,4′]bipyridinyl-1-yl)-propyl]-[1,4]diazepan-5-one]"
7,28 nM,"O=C(/C=C/c1ccc(Cl)c(Cl)c1)N1CCC(=O)N(C[C@@H](O)CN2CCCCC2)CC1 [Example 167, 1-[(E)-3-(3,4-Dichloro-phenyl)-acryloyl]-4-((S)-2-hydroxy-3-piperidin-1-yl-propyl)-[1,4]diazepan-5-one]"
8,334 nM,O=C(/C=C/c1ccc(F)c(Cl)c1)N1CCC(=O)N(CCCCN2CCC(O)CC2)CC1 [Example 384]
9,85 nM,COC[C@H]1CCN(CCCCN2CCN(C(=O)/C=C/c3ccc(Cl)c(Cl)c3)CCC2=O)C[C@H]1OC (racemic) [Example 470]
10,215 nM,CC1(C)CN(CC(O)CN2CCN(C(=O)/C=C/c3ccc(Cl)c(Cl)c3)CCC2=O)CCC1O (racemic) [Example 324]
11,13 nM,CC1(C)CCN(CCCN2CCN(C(=O)/C=C/c3ccc(F)c(Cl)c3)CCC2=O)CC1O (racemic) [Example 223]
12,5 nM,"CC1CC(O)CN(CCCN2CCN(C(=O)C=Cc3ccc(Cl)c(Cl)c3)CCC2=O)C1 (mixture of isomers) [Example 279, (rac,cis)-1-[(E)-3-(3,4-Dichloro-phenyl)-acryloyl]-4-[3-(3-hydroxy-5-methyl-piperidin-1-yl)-propyl]-[1,4]diazepan-5-one]"
13,124 nM,O=C(/C=C/c1ccc(Cl)c(Cl)c1)N1CCC(=O)N(CCCN2CCN(C3CCCC3)CC2)CC1 [Example 242]
14,1160 nM,O=C(/C=C/c1ccc(Cl)c(Cl)c1)N1CCC(=O)N(CCCCN2CCC3(CCCO3)CC2)CC1 (racemic) [Example 467]
15,105 nM,CC(C)N1CCN(CCCN2CCN(C(=O)/C=C/c3ccc(Cl)c(Cl)c3)CCC2=O)CC1 [Example 240]
16,148 nM,"O=C(/C=C/c1ccc(Cl)c(Cl)c1)N1CCC(=O)N(CCCN2CCC[C@@H](O)C2)CC1 [Example 91, (R)-1-[(E)-3-(3,4-Dichloro-phenyl)-acryloyl]-4-[3-(3-hydroxy-piperidin-1-yl)-propyl]-[1,4]diazepan-5-one]"
17,448 nM,CC1(O)CCCN(CCCCN2CCN(C(=O)/C=C/c3ccc(Cl)c(Cl)c3)CCC2=O)C1 (racemic) [Example 431]
18,747 nM,"CC1CCC(N(C)CCCN2CCN(C(=O)/C=C/c3ccc(Cl)c(Cl)c3)CCC2=O)CC1 (mixture of isomers) [Example 54, cis/trans-1-[(E)-3-(3,4-Dichloro-phenyl)-acryloyl]-4-{3-[methyl-(4-methyl-cyclohexyl)-amino]-propyl}-[1,4]diazepan-5-one]"
19,13 nM,"C[C@@H]1C[C@H](O)CN(C[C@H](O)CN2CCN(C(=O)/C=C/c3ccc(Cl)c(Cl)c3)CCC2=O)C1 (mixture of isomers) [Example 335, 1-[(E)-3-(3,4-Dichloro-phenyl)-acryloyl]-4-[(S)-2-hydroxy-3-(cis-3-hydroxy-5-methyl-piperidin-1-yl)-propyl]-[1,4]diazepan-5-one]"

row,Molecule,IC50
1,"4-[3-(4-Methyl-4-hydroxy-piperidin-1-yl)-propyl]-1-[(E)-3-(3,4-dichloro-phenyl)-acryloyl]-[1,4]diazepan-5-one [Example 76]",219 nM
2,"1-[(E)-3-(3,4-Dichloro-phenyl)-acryloyl]-4-[3-(4-methyl-piperazin-1-yl)-propyl]-[1,4]diazepan-5-one [Example 75]",267 nM
